According to ChEMBL document CHEMBL1140443, “Inhibitors of apoptosis in lymphocytes: synthesis and biological evaluation of compounds related to pifithrin-alpha” (J Med Chem, 2005):

Organism: Mus musculus
Assay: Average percent survival of C57Bl/6 mice thymocytes from Dexamethasone (5 uM) induced apoptosis at 10 uM

**Q.** With `COc1ccc(-c2cn3c4c(sc3n2)CCCC4)cc1` as the compound, how does the Survival read?
**A.** 28%

**Q.** How did the Survival turn out when `Cc1ccc(C(=O)CSc2nc3ccccc3[nH]2)cc1` was run?
**A.** 15%

**Q.** For `Nc1ccc(-c2cn3c4c(sc3n2)CCCC4)cc1`, which Survival is on record?
**A.** 18%

**Q.** `Cc1ccc(-c2cn3c(n2)sc2cc(O)ccc23)cc1` was tested. Which Survival did it give?
**A.** 19%

**Q.** Which Survival does the source give for `Cc1ccc(-c2nc3c4ccccc4ncn3n2)cc1` here?
**A.** 17%

**Q.** Which Survival does the source give for `Brc1ccc(-c2cn3c4c(sc3n2)CCCC4)cc1` here?
**A.** 35%

**Q.** How did the Survival turn out when `Cc1ccc(C(=O)CNc2ncnc3ccccc23)cc1` was run?
**A.** 32%

**Q.** How did the Survival turn out when `N=c1sc2c(n1CC(=O)c1ccc(OC(=O)c3ccccc3)cc1)CCCC2` was run?
**A.** 17%

**Q.** With `Clc1ccccc1-c1cn2c3c(sc2n1)CCCC3` as the compound, how does the Survival read?
**A.** 37%

**Q.** For `Cc1ccc(-c2cn3cnc4ccccc4c3n2)cc1`, which Survival is on record?
**A.** 26%

**Q.** `Brc1ccc(-c2cn3c(n2)sc2ccccc23)cc1` was tested. Which Survival did it give?
**A.** 22%

**Q.** How did the Survival turn out when `N=c1sc2ccccc2n1CC(=O)c1ccccc1` was run?
**A.** 20%

**Q.** How did the Survival turn out when `O=[N+]([O-])c1ccc(-c2cn3c4c(sc3n2)CCCC4)cc1` was run?
**A.** 11%

**Q.** Which Survival does the source give for `N=c1sc2c(n1CC(=O)c1ccc(F)cc1)CCCC2` here?
**A.** 48%

**Q.** `N#Cc1ccc(-c2cn3c4c(sc3n2)CCCC4)cc1` was tested. Which Survival did it give?
**A.** 21%

**Q.** `Cc1ccc(C(=O)Cn2c(=O)oc(=O)c3ccccc32)cc1` was tested. Which Survival did it give?
**A.** 28%

**Q.** With `Cc1ccc(C(=O)Cn2/c(=N/S(=O)(=O)c3ccccc3)sc3ccccc32)cc1` as the compound, how does the Survival read?
**A.** 48%

**Q.** How did the Survival turn out when `N=c1sc2ccccc2n1CC(=O)c1ccc(C2CCCC2)cc1` was run?
**A.** 33%

**Q.** With `N=c1sc2c(n1CC(=O)c1ccc(C(F)(F)F)cc1)CCCC2` as the compound, how does the Survival read?
**A.** 36%

**Q.** Which Survival does the source give for `O=C(Oc1ccc(-c2cn3c4c(sc3n2)CCCC4)cc1)c1ccccc1` here?
**A.** 23%

**Q.** `Cc1ccc(Cn2c(=N)sc3ccccc32)cc1` was tested. Which Survival did it give?
**A.** 8%

**Q.** Which Survival does the source give for `N=c1sc2c(n1CC(=O)c1ccc(F)c(F)c1)CCCC2` here?
**A.** 40%

**Q.** How did the Survival turn out when `c1ccc2c(c1)sc1nc(-c3ccc(C4CCCC4)cc3)cn12` was run?
**A.** 36%

**Q.** Which Survival does the source give for `FC(F)(F)c1ccc(-c2cn3c4c(sc3n2)CCCC4)cc1` here?
**A.** 27%

**Q.** For `CC(=O)N1C(c2ccc(C)cc2)N=C2c3ccccc3N=CN21` (configuration not stated), which Survival is on record?
**A.** 23%

**Q.** How did the Survival turn out when `Clc1ccc(-c2cn3c4c(sc3n2)CCCC4)cc1Cl` was run?
**A.** 36%

**Q.** How did the Survival turn out when `N=c1sc2c(n1CC(=O)c1ccc(Br)cc1)CCCC2` was run?
**A.** 31%

**Q.** For `N=c1sc2ccccc2n1Cc1ccccc1`, which Survival is on record?
**A.** 20%

**Q.** With `Cc1ccc(/C=N/Nc2ncnc3ccccc23)cc1` as the compound, how does the Survival read?
**A.** 23%

**Q.** For `CCOC(=O)Cn1c2c(sc1=N)CCCC2`, which Survival is on record?
**A.** 27%

**Q.** How did the Survival turn out when `Cc1ccc(-c2csc3nc4ccccc4n23)cc1` was run?
**A.** 48%

**Q.** Which Survival does the source give for `Cc1ccc(C(=O)Cn2c3c(sc2=O)CCCC3)cc1` here?
**A.** 40%

**Q.** Which Survival does the source give for `Fc1ccc(-c2cn3c4c(sc3n2)CCCC4)cc1F` here?
**A.** 44%

**Q.** `Cc1ccc(C(=O)Cn2c(=N)oc3ccc(Cl)cc32)cc1` was tested. Which Survival did it give?
**A.** 19%

**Q.** `Cc1ccc(C(=O)CSc2nc3ccccc3s2)cc1` was tested. Which Survival did it give?
**A.** 16%

**Q.** For `Cc1cn2c(n1)sc1ccccc12`, which Survival is on record?
**A.** 22%

**Q.** With `Cc1ccc(-c2cn3ccsc3n2)cc1` as the compound, how does the Survival read?
**A.** 27%

**Q.** How did the Survival turn out when `O=C(O)c1ccc(-c2cn3c4c(sc3n2)CCCC4)cc1` was run?
**A.** 20%

**Q.** How did the Survival turn out when `[N-]=[N+]=Nc1ccc(-c2cn3c4c(sc3n2)CCCC4)cc1` was run?
**A.** 50%

**Q.** For `Cc1ccc(C(=O)Cn2c(=O)sc3ccccc32)cc1`, which Survival is on record?
**A.** 30%

**Q.** For `Cc1ccc(-c2cn3c(n2)sc2cc(Br)ccc23)cc1`, which Survival is on record?
**A.** 39%

**Q.** How did the Survival turn out when `Fc1ccc(-c2cn3c4c(sc3n2)CCCC4)cc1` was run?
**A.** 33%
